Literature values, collected in patent US20020143065A1, “Developing a delivery system for multi-pharmaceutical active materials at various release rates” (priority 2000, published 2002).

Key:
[1] = gynecological patients, intravenous patient-controlled analgesia
[2] = compared with tramadol racemate

SMILES | analgesic efficacy [1] | side effects (nausea and vomiting) [1] | opiate-like analgesic effect [2]
COc1cccc(C2(O)CCCCC2CN(C)C)c1 (racemic) [racemate, tramadol] | more efficacy than (−) tramadol enantiomer | no more side effects than (+) tramadol enantiomer | –
COc1cccc([C@@]2(O)CCCC[C@@H]2CN(C)C)c1 (single isomer, unassigned) [(+) enantiomer, (+) tramadol] | more potent in producing analgesia | produced more nausea and vomiting | considerably enhanced compared with that of tramadol
